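Grown in 96-well plates, cells were treated for 48 hours with each compound at five concentrations. Insufficient inhibition: endpoint recorded as highest concentration tested. GI50 = concentration required for 50% inhibition of growth.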 Active and inactive are the calls of the source. Rule as the data show it: active = GI50 up to about 1.1 µM and inactive = higher.

Among the test systems are CCRF-CEM; COLO 205; DU-145; HCC 2998; MDA-MB-231; MDA-N; Malme-3M; NCI-H23; OVCAR-4; OVCAR-8; PC-3; RXF 393; SK-MEL-2; SK-MEL-5; SK-OV-3; SN12C; SNB-19; SW-620; TK-10; UACC-62.
Holding throughout (experiment): NCI anticancer screen, dose series, 48 h

Regarding `COc1cc(-c2[nH]ccc2Cl)oc1C1=C2N=C3C=C2C(C(C)C)C1CCCCCCCC3` (stereo not given), the GI50 with CCRF-CEM is 275 nM (active); in the test with COLO 205, 566 nM (active); in the test with DU-145, 614 nM (active); in the test with HCC 2998, 341 nM (active); in the test on MDA-MB-231, 279 nM (active); with MDA-N it was 466 nM (active). The GI50 in the test on Malme-3M is 1090 nM (active); with NCI-H23, 738 nM (active); in the test on OVCAR-4, 863 nM (active); with OVCAR-8, 805 nM (active); with PC-3, 332 nM (active); with RXF 393, 904 nM (active). The GI50 was 483 nM (active) in the test with SK-MEL-2; 321 nM (active) with SK-MEL-5; 1600 nM (inactive) in the test on SK-OV-3; 940 nM (active) in the test on SN12C; 1690 nM (inactive) in the test with SNB-19; 386 nM (active) with SW-620. Besides, the results for the GI50 with TK-10 and in the test with UACC-62 were 2050 nM (inactive) and 794 nM (active), respectively.
As to `COc1ccc(NC(=O)CC(=O)NNC(Sc2ccccc2)c2cc(/N=N/c3ccc(Br)cc3)ccc2O)cc1` (stereo not given), the GI50 in the test with CCRF-CEM is 3560 nM (inactive); in the test with COLO 205, > 10000 nM (inactive); in the test on DU-145, > 10000 nM (inactive); in the test on HCC 2998 it was > 10000 nM (inactive); in the test on MDA-MB-231, > 10000 nM (inactive); in the test with MDA-N, > 10000 nM (inactive). In addition, the GI50 is > 10000 nM (inactive) in the test on Malme-3M; > 10000 nM (inactive) in the test with NCI-H23; 9120 nM (inactive) with OVCAR-4; > 10000 nM (inactive) in the test on OVCAR-8; > 10000 nM (inactive) with PC-3; > 10000 nM (inactive) in the test with RXF 393. The GI50 in the test on SK-MEL-2 is > 10000 nM (inactive); in the test on SK-MEL-5, > 10000 nM (inactive); in the test with SK-OV-3 it was > 10000 nM (inactive); in the test with SN12C, 7520 nM (inactive); in the test on SNB-19, > 10000 nM (inactive); with SW-620, > 10000 nM (inactive). The GI50 in the test with TK-10 and with UACC-62 was > 10000 nM (inactive) throughout.
As to `O=[As](O)(O)c1ccc(Cc2ccc([As](=O)(O)O)cc2)cc1`, the GI50 with CCRF-CEM was 81.3 nM (active); with COLO 205, 617 nM (active); in the test on DU-145 it was 336 nM (active); in the test with HCC 2998 it was 1910 nM (inactive); in the test with MDA-MB-231, 1010 nM (active); in the test on MDA-N it was 421 nM (active). Also, the GI50 in the test with Malme-3M is 1200 nM (inactive); in the test with NCI-H23 it was 773 nM (active); with OVCAR-4, 1900 nM (inactive); with OVCAR-8, 358 nM (active); in the test on PC-3 it was 546 nM (active); with RXF 393 it was 413 nM (active). The GI50 in the test on SK-MEL-2 was 1350 nM (inactive); in the test with SK-MEL-5 it was 632 nM (active); with SK-OV-3, 2150 nM (inactive); in the test on SN12C it was 640 nM (active); in the test with SNB-19, 1150 nM (inactive); with SW-620 it was 270 nM (active). Also, the GI50 in the test on TK-10 was 547 nM (active); with UACC-62 it was 1280 nM (inactive).
For `Cc1cc(C)c2c(=N)c3ccccc3n(CCCCCCO)c2n1`, the GI50 in the test with CCRF-CEM was 1220 nM (inactive); in the test with COLO 205, 1350 nM (inactive); with DU-145, 5480 nM (inactive); with HCC 2998 it was 2810 nM (inactive); in the test with MDA-MB-231 it was 3680 nM (inactive); in the test on MDA-N it was 2520 nM (inactive). Also, the GI50 with Malme-3M was 2630 nM (inactive); in the test on NCI-H23, 2150 nM (inactive); in the test on OVCAR-4 it was 2450 nM (inactive); in the test with OVCAR-8 it was 1170 nM (inactive); with PC-3, 2210 nM (inactive); in the test with RXF 393, 3210 nM (inactive). The GI50 was 3270 nM (inactive) in the test on SK-MEL-2; 2550 nM (inactive) in the test with SK-MEL-5; 5200 nM (inactive) in the test with SK-OV-3; 1950 nM (inactive) in the test with SN12C; 5600 nM (inactive) in the test on SNB-19; 4170 nM (inactive) with SW-620. Moreover, the GI50 in the test with TK-10 was 3150 nM (inactive); in the test with UACC-62, 2640 nM (inactive).
As to `CC(=O)O[C@H]1CCC2[C@@H]3CCC4NC(=O)C(C#N)C[C@]4(C)C3CC[C@@]21C` (stereo not given in full), the GI50 in the test with CCRF-CEM, with COLO 205, in the test with DU-145, in the test on HCC 2998, in the test with MDA-MB-231 and with MDA-N was > 10000 nM (inactive) throughout. For the same compound, the GI50 in the test on Malme-3M, in the test on NCI-H23, in the test on OVCAR-4, with OVCAR-8, with PC-3 and in the test with RXF 393 was > 10000 nM (inactive) each time. Also, the GI50 in the test with SK-MEL-2, in the test with SK-MEL-5, in the test on SK-OV-3, in the test with SN12C, in the test on SNB-19 and in the test with SW-620 was > 10000 nM (inactive) in each case. In addition, the GI50 in the test with TK-10 and in the test with UACC-62 was > 10000 nM (inactive) throughout.

The values are drawn from ChEMBL document CHEMBL1201862, “PubChem BioAssay data set” (2004).
